Experimental data reported in patent US20220193076A1, “METHODS OF TREATING BREAST CANCER WITH TUCATINIB” (Seagen Inc., priority 2019, published 2022).

How the values were obtained:
MATE1 = target: T1, MATE1 (Homo sapiens, UniProt Q96FL8); test: Inhibition of MATE1 mediated transport of creatinine in transfected MDCK-II cells (Example 3); type: in vitro ADME; parameters: expressed in transfected cells; host or cells: MDCK-II; conditions: probe substrate creatinine
T1 sequence (Q96FL8 1-570): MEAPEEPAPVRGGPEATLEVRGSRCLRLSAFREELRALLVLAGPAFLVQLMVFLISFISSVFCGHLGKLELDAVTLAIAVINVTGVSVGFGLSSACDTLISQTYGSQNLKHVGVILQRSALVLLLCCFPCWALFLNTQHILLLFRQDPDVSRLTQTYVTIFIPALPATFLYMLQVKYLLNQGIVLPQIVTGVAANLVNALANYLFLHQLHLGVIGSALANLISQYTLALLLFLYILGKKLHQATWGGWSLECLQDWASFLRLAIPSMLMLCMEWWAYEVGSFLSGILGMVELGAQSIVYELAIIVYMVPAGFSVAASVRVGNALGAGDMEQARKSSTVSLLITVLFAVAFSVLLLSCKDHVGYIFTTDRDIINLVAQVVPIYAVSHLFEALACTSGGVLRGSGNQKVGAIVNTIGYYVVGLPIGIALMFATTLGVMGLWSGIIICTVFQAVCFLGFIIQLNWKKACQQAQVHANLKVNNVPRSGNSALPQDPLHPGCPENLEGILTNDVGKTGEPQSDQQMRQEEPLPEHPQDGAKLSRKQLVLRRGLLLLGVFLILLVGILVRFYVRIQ
Protocol: OAT2, OCT2, OCT3, MATE1, and MATE2-K are the renal transporters identified to transport creatinine.
(§1) For this study, MDCK-II were maintained in DMEM with low glucose and 10% FBS. Cells were seeded at 60K±10K cells/well on 96-well, transwell membrane plates approximately 24 hours before transfection. Transport assays were carried out approximately 48 hours after transfection. Cells were transfected and treated to express the transporter of interest or treated with a control vector. The transport of creatinine was determined by radiometric detection.
(§2) Net transporter mediated uptake of the substrate by each transporter was calculated as follows: Net Transporter Mediated Substrate Uptake (pmol/min/cm^2)=(Cellular accumulation in the presence of the transporter)−(Mean cellular accumulation in the absence of the transporter.
Percent inhibition was calculated as follows: Percent inhibition=100−(100*(transporter mediated uptake)with inhibition/(transporter mediated uptake)without inhibition)
The following equation was used to determine IC50 values of uptake assays: […]

[1] = Example 1: renal function (iohexol aGFR, serum creatinine, urine albumin); type: in vivo, human
OCT2 = target: T2, OCT2 (Homo sapiens, UniProt O15244); test: Inhibition of OCT2 mediated transport of creatinine in transfected MDCK-II cells (Example 3); type: in vitro ADME; conditions: probe substrate creatinine, 0.03 to 10 μM
T2 construct: expressed in transfected cells; host or cells: MDCK-II
T2 sequence (O15244 1-555): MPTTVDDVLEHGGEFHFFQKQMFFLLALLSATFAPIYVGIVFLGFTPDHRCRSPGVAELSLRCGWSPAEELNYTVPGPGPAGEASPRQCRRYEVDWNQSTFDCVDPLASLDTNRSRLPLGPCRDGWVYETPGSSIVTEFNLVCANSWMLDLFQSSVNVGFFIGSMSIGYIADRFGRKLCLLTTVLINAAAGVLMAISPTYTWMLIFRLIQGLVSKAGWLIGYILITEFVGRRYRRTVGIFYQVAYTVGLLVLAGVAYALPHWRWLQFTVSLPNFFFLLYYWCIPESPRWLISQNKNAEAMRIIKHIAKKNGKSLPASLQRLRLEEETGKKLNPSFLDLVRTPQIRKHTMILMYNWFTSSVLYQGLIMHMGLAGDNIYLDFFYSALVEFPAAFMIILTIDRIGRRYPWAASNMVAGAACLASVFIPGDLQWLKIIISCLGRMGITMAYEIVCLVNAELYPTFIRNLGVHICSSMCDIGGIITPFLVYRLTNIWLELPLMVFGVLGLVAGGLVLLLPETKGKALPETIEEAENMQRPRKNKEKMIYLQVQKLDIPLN
Protocol: Substrate dependent inhibition is common among transporters including MATE1 and MATE2-K. In this study, creatinine was used as the probe substrate to assess the inhibitory potency of Tucatinib and ONT-993. OAT2, OCT2, OCT3, MATE1, and MATE2-K are the renal transporters identified to transport creatinine. Tucatinib and its metabolite ONT-993 were tested as potential inhibitors of OAT2, OCT2, MATE1, and MATE2-K mediated transport using creatinine as a probe substrate.
as §1, §2
Percent inhibition was calculated as follows: Percent inhibition=100−(100*(transporter mediated uptake)with inhibition/(transporter mediated uptake)without inhibition) […]

P-glycoprotein (P-gp) = P-glycoprotein (P-gp) (Homo sapiens, UniProt P08183); test: P-gp substrate assessment and inhibition of P-gp-mediated efflux of digoxin; type: in vitro ADME
P-glycoprotein (P-gp), sequence (P08183 whole entry): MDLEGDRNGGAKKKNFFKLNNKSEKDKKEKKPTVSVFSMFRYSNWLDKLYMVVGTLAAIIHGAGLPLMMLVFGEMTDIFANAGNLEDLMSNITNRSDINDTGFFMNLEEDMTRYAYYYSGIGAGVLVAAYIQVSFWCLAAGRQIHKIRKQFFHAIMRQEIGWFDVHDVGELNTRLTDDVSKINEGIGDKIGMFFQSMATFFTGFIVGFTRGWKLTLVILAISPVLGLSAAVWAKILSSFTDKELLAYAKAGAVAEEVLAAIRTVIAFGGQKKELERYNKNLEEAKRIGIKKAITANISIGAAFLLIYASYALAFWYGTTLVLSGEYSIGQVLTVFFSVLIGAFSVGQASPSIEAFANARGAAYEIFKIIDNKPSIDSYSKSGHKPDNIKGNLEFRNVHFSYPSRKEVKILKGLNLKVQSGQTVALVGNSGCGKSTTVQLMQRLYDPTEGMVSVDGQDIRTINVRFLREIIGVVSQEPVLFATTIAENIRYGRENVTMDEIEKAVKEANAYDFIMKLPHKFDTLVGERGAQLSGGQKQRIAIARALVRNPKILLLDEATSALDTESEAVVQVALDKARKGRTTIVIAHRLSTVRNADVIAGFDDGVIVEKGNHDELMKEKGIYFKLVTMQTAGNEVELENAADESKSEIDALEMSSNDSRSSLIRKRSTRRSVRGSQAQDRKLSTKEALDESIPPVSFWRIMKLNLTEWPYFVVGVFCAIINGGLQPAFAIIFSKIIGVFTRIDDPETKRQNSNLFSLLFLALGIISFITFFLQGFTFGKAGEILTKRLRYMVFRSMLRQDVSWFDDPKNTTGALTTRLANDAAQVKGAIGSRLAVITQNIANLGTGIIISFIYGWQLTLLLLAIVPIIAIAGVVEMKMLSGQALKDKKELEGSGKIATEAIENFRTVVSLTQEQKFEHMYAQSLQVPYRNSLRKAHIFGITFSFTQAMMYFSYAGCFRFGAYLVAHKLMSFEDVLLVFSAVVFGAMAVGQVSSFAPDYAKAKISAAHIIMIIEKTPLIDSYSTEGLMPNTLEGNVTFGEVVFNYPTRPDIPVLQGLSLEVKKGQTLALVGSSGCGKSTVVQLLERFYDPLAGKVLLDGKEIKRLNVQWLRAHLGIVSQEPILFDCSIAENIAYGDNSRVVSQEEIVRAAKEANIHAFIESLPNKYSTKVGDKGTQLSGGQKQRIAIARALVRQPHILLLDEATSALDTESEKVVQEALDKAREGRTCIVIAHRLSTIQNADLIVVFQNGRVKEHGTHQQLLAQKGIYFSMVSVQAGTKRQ

[2] = Example 2 Part E: single- and multiple-dose PK of tucatinib and ONT-993; type: in vivo, human; conditions: tucatinib 300 mg BID, Day 14 vs Day 8
[3] = Example 2 Part D: single- and multiple-dose PK of tucatinib and ONT-993; type: in vivo, human; conditions: tucatinib 300 mg BID, Day 10 vs Day 4
Source text: Other noncompartmental PK parameters may be reported.

[4] = following multiple doses of tucatinib

For `Cc1cc(Nc2ncnc3ccc(NC4=NC(C)(C)CO4)cc23)ccc1Oc1ccn2ncnc2c1` [tucatinib], the IC50 (MATE1) was 85.5 ± 17.5 nM, the Renal damage ([1]; conclusion of Example 1) was “does not cause renal damage” and the “Change in mean serum creatinine” value [1, 4] was “increase”. The “Measures of renal function including aGFR as assessed by iohexol and urine albumin levels” value [1, 4] was “not affected”, the IC50 (OCT2) was 107 ± 37.9 nM and the IC50 (P-glycoprotein (P-gp)) was 10000 to 30000 nM. The P-gp substrate status (P-glycoprotein (P-gp)) was “P-glycoprotein (P-gp) substrate”, the “Rac (accumulation ratio) after multiple dosing” value [2] was 1.50 and the “Rac (accumulation ratio) after multiple dosing” value [3] was 1.85.
